Assay results reported in US11945798B2, “Substituted aminopyridine compounds as EGFR inhibitors” (YUHAN CORPORATION, priority 2021, dated 2024).
Read-outs that look alike come from different tables or passages of the source.

How the values were obtained:
[1] = biological target: EGFR L858R/T790M/C797S (Homo sapiens, UniProt P00533, C797S/L858R/T790M); assay: Biochemical EGFR kinase assay (Lance Ultra TR-FRET), L858R/T790M/C797S
How it was run: (§1)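 Enzyme reactions lasted 1 hour at room temperature with test compounds between 0.003 and 10 μM, followed by 10 mM EDTA quench.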

[2] = biological target: EGFR del19/T790M/C797S (Homo sapiens, UniProt P00533, C797S/DEL746-750/T790M); assay: Biochemical EGFR kinase assay (Lance Ultra TR-FRET), del19/T790M/C797S
EGFR del19/T790M/C797S, sequence (P00533 with tags, fused parts or gaps DEL746-750/T790M/C797S): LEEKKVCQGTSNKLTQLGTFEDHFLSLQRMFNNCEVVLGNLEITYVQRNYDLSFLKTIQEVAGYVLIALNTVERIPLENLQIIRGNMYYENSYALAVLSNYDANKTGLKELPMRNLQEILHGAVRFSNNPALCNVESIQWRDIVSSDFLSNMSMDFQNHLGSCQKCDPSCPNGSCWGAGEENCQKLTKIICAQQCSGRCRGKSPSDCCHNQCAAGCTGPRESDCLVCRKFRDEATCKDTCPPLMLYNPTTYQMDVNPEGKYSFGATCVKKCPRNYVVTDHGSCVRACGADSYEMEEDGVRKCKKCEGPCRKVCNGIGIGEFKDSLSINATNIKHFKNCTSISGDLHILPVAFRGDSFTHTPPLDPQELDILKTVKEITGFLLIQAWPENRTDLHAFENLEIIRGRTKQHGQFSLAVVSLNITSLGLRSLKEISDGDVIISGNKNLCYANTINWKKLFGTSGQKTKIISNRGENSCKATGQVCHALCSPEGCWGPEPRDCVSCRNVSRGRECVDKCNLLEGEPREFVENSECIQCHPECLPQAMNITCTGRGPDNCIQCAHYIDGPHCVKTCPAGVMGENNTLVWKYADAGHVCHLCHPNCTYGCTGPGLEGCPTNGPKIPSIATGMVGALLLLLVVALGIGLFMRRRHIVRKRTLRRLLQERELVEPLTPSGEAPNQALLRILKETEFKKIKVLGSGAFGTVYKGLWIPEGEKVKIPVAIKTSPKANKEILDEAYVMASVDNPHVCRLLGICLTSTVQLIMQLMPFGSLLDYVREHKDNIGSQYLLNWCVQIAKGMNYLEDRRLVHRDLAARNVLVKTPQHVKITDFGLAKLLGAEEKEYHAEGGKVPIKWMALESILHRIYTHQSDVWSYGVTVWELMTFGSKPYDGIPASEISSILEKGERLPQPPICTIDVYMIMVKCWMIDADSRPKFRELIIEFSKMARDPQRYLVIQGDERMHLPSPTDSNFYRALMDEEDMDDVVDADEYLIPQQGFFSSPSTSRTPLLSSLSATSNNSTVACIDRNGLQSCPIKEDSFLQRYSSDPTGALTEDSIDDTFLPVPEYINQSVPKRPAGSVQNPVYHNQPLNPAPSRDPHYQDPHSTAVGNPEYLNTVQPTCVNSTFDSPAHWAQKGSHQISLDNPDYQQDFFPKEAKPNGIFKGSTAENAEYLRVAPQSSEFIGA
How it was run: as §1

[3] = biological target: EGFR L858R/C797S (Homo sapiens, UniProt P00533, C797S/L858R); assay: Biochemical EGFR kinase assay (Lance Ultra TR-FRET), L858R/C797S
Procedure: Biochemical EGFR kinase assays were conducted using Lance Ultra time-resolved fluorescence resonance energy transfer (TR-FRET) technology from Perkin-Elmer. Compounds of the invention were initially diluted to 20 mM in 100% DMSO for storage and made into kinase buffer solution to create a compound concentration ranging from 0.003 μM and 10 μM.
Each kinase reactions were incubated at room temperature for 1 hour and then stopped by the addition of 4 μL of stop solution (10 mM EDTA). The specific Europium-labeled-anti-phosphopeptide antibody (PerkinElmer, AD0069) diluted in LANCE detection buffer was then added to a final concentration of 2 nM. After 60 minutes incubation at room temperature the LANCE signal was measured on an EnVision Multilabel Reader (Perkin-Elmer). Excitation wavelength was set at 320 nm and emission monitored at 615 nm (donor) and 665 nm (acceptor). The IC50 values were determined using GraphPad prism software (GraphPad Software, Inc., San Diego, CA, USA).

[4] = biological target: EGFR del19/C797S (Homo sapiens, UniProt P00533, C797S/DEL746-750); assay: Biochemical EGFR kinase assay (Lance Ultra TR-FRET), del19/C797S
EGFR del19/C797S, sequence (P00533 with tags, fused parts or gaps DEL746-750/C797S): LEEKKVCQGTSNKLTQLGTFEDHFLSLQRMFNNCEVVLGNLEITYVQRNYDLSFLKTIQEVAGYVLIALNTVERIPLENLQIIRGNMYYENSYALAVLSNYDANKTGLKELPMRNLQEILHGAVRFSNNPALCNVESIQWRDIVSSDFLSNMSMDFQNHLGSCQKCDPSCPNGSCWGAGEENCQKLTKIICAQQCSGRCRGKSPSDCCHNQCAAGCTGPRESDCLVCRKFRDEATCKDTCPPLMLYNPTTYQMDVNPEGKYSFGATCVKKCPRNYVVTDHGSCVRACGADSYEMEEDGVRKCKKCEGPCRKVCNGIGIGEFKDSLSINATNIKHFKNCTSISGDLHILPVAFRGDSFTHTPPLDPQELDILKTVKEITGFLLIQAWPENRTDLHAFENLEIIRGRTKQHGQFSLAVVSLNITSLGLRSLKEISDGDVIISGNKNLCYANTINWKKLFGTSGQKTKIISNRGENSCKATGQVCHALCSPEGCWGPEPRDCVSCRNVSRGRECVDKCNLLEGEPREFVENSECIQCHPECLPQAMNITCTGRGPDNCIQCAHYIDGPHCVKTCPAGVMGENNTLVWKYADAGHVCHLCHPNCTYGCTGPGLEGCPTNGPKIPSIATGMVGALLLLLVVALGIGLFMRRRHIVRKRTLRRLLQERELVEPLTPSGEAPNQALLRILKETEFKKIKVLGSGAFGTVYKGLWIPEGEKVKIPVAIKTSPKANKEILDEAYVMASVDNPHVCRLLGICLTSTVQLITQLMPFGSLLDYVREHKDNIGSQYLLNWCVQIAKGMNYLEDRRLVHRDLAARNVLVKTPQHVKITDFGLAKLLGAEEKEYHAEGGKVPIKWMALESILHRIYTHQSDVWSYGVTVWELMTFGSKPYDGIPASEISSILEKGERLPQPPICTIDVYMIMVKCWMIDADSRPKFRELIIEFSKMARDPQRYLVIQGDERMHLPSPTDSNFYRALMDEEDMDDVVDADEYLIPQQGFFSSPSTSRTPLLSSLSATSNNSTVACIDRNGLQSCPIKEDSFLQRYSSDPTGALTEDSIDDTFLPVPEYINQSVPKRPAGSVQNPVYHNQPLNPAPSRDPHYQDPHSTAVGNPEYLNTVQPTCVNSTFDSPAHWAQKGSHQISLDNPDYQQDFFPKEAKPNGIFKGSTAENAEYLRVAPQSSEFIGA
How it was run: as §1

[5] = biological target: EGFR wildtype (WT) (Homo sapiens, UniProt P00533); assay: Biochemical EGFR kinase assay (Lance Ultra TR-FRET), wildtype
EGFR wildtype (WT), sequence (P00533 25-1210): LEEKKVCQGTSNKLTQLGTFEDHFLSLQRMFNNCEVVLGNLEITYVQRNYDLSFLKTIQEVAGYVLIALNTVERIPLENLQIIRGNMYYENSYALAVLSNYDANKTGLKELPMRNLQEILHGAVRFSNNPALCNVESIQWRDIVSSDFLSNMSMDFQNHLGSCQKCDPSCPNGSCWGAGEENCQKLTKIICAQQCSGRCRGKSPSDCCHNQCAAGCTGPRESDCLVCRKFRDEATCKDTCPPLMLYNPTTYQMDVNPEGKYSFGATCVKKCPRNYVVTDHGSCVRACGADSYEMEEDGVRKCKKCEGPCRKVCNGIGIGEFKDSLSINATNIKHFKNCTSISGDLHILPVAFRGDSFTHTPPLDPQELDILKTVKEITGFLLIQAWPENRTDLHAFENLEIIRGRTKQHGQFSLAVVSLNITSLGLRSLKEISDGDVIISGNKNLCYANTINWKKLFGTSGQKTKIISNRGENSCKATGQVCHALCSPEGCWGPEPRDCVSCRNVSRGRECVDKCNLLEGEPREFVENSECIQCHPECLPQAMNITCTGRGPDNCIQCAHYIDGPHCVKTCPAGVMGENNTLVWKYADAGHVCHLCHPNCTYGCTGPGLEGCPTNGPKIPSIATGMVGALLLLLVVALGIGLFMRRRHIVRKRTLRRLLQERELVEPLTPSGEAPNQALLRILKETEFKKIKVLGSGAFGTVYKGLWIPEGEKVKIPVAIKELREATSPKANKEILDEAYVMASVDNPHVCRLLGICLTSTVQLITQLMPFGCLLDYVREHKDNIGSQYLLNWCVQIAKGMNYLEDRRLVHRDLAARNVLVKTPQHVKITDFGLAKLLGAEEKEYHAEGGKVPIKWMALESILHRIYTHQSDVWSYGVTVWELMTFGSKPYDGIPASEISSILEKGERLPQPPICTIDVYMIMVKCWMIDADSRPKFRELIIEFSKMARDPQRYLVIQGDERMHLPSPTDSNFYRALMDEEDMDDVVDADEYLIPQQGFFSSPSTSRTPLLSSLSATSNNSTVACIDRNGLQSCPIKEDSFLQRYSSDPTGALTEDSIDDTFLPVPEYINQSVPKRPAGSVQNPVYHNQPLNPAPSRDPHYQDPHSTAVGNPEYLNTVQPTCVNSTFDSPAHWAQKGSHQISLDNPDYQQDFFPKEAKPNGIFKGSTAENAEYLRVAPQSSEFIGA
How it was run: as §1

[6] = IC50 L858R/T790M/C797S (nM) 100 μM ATP, 100 μM ATP
[7] = Km ATP, read-out: IC50 L858R/T790M/C797S (nM) Km ATP
[8] = IC50 del19/T790M/C797S (nM) 100 μM ATP, 100 μM ATP
[9] = Km ATP, read-out: IC50 del19/T790M/C797S (nM) Km ATP
[10] = IC50 L858R/C797S (nM) 100 μM ATP, 100 μM ATP
[11] = Km ATP, read-out: IC50 L858R/C797S (nM) Km ATP
[12] = IC50 del19/C797S (nM) 100 μM ATP, 100 μM ATP
[13] = Km ATP, read-out: IC50 del19/C797S (nM) Km ATP
[14] = IC50 WT (nM) 100 μM ATP, 100 μM ATP
[15] = Km ATP, read-out: IC50 WT (nM) Km ATP

EGFR L858R/T790M/C797S, sequence (P00533 25-1210 T790M/C797S/L858R): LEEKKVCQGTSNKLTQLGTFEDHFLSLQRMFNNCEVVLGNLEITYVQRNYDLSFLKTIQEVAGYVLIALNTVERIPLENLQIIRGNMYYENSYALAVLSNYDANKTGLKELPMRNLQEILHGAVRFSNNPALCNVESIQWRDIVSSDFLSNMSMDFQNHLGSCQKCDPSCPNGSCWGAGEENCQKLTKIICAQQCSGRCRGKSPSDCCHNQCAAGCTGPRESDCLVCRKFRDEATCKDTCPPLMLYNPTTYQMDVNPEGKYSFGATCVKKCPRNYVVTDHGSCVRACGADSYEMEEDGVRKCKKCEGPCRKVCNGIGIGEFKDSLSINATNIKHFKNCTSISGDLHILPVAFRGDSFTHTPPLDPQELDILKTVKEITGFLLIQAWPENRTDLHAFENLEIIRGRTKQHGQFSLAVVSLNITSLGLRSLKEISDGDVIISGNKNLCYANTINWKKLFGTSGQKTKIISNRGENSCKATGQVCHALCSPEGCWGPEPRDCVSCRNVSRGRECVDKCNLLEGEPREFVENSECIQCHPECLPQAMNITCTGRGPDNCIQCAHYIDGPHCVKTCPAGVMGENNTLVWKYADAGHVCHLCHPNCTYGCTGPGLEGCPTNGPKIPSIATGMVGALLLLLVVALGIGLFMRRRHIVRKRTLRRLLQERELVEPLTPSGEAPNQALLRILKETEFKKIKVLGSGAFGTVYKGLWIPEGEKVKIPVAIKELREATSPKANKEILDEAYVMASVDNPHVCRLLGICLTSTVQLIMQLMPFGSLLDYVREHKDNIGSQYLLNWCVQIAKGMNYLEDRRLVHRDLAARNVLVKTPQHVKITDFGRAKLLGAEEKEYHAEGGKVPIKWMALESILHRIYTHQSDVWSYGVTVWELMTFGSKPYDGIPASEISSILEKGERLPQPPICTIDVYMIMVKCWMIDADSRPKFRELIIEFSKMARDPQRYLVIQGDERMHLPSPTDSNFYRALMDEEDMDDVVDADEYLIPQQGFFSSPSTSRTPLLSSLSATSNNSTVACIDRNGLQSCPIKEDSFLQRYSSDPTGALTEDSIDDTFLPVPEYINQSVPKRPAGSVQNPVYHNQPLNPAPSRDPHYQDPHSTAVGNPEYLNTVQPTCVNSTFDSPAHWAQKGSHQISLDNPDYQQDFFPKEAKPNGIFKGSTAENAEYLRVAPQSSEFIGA

Row | Structure (SMILES) | IC50 [1, 6] [nM] | IC50 [1, 7] [nM] | IC50 [2, 8] [nM] | IC50 [2, 9] [nM] | IC50 [3, 10] [nM] | IC50 [3, 11] [nM] | IC50 [4, 12] [nM] | IC50 [4, 13] [nM] | IC50 [5, 14] [nM] | IC50 [5, 15] [nM]
1 | O=C(c1cnc(Nc2ccnc(-c3cnn(S(=O)(=O)C4CC4)c3)n2)cc1NC1CCCN(CCF)C1)C1CC1 (stereo not shown) [Example 39, Cyclopropyl(6-((2-(1-(cyclopropylsulfonyl)-1H-pyrazol-4-yl)pyrimidin-4-yl)amino)-4-((1-(2-fluoroethyl)piperidin-3-yl)amino)pyridin-3-yl)methanone] | 5.2 | 1.9 | 3.8 | 2.9 | 451 | 19 | 38.8 | 38.4 | > 10000 | 470
2 | C[C@]1(O)CC[C@@H](Nc2cc(Nc3ccnc(-c4cnn(S(=O)(=O)C5CC5)c4)n3)ncc2C(=O)CC2CCOCC2)CC1 [Example 40, 1-(6-((2-(1-(Cyclopropylsulfonyl)-1H-pyrazol-4-yl)pyrimidin-4-yl)amino)-4-(((1s,4s)-4-hydroxy-4-methylcyclohexyl)amino)pyridin-3-yl)-2-(tetrahydro-2H-pyran-4-yl)ethan-1-one] |  | 0.2 | 0.6 | 0.4 | 189 | 5.1 | 16.3 | 3.1 | > 10000 | 64.5
3 | O=C(c1cnc(Nc2ccnc(-c3cnn(S(=O)(=O)C4CC4)c3)n2)cc1NC[C@H]1CC[C@H](Cn2ccnc2)CC1)C1CC1 [Example 43, (4-((((1r,4r)-4-((1H-Imidazol-1-yl)methyl)cyclohexyl)methyl)amino)-6-((2-(1-(cyclopropylsulfonyl)-1H-pyrazol-4-yl)pyrimidin-4-yl)amino)pyridin-3-yl)(cyclopropyl)methanone] |  | 0.5 |  | 1.3 |  | 24 |  | 10.5 |  | 64.1
4 | CC(=O)c1cnc(Nc2ccnc(-c3cnn(S(=O)(=O)C4CC4)c3)n2)cc1NC(C)(C)C(C)O (stereo not shown) [Example 46, 1-(6-((2-(1-(Cyclopropylsulfonyl)-1H-pyrazol-4-yl)pyrimidin-4-yl)amino)-4-((3-hydroxy-2-methylbutan-2-yl)amino)pyridin-3-yl)ethan-1-one] |  | 7.3 |  | 0.6 |  | 471 |  | 290 |  | 1410
5 | CC(=O)c1cnc(Nc2ccnc(-c3cnn(S(=O)(=O)C4CC4)c3)n2)cc1NC1CCC(CO)C1 (stereo not shown) [Example 47, 1-(6-((2-(1-Cyclopropylsulfonylpyrazol-4-yl)pyrimidin-4-yl)amino)-4-((3-(hydroxymethyl)cyclopentyl)amino)-3-pyridyl)ethanone] |  | 0.6 |  | 0.1 |  | 51.3 |  | 10.5 |  | 145
6 | C[C@]1(O)CC[C@@H](Nc2cc(Nc3ccnc(-c4cnn(S(=O)(=O)C5CC5)c4)n3)ncc2C(=O)C(F)F)CC1 [Example 48, 1-(6-((2-(1-(Cyclopropylsulfonyl)-1H-pyrazol-4-yl)pyrimidin-4-yl)amino)-4-(((1s,4s)-4-hydroxy-4-methylcyclohexyl)amino)pyridin-3-yl)-2,2-difluoroethan-1-one] | 2.4 | 0.5 | 1 | 0.8 | 110 | 26.2 | 4.4 | 15.7 | > 10000 | 553
7 | O=C(c1cnc(Nc2ccnc(-c3cnn(S(=O)(=O)C4CC4)c3)n2)cc1N[C@H]1CC[C@@H](CO)CC1)C(F)F [Example 49, 1-(6-((2-(1-(Cyclopropylsulfonyl)-1H-pyrazol-4-yl)pyrimidin-4-yl)amino)-4-(((1s,4s)-4-(hydroxymethyl)cyclohexyl)amino)pyridin-3-yl)-2,2-difluoroethan-1-one] | 0.7 | 0.2 | 0.4 | 0.4 | 21.1 | 4 | 1.2 | 2.6 | > 10000 | 181
8 | O=C(c1cnc(Nc2ccnc(-c3cnn(S(=O)(=O)C4CC4)c3)n2)cc1NC1CCC(NCCO)CC1)C1CC1 (stereo not shown) [Example 52, Cyclopropyl(6-((2-(1-(cyclopropylsulfonyl)-1H-pyrazol-4-yl)pyrimidin-4-yl)amino)-4-((4-((2-hydroxyethyl)amino)cyclohexyl)amino)pyridin-3-yl)methanone] | 1.8 |  | 1.1 |  | 15.2 |  | 26 |  | > 10000 | 
9 | O=C(c1cnc(Nc2ccnc(-c3cnn(S(=O)(=O)C4CC4)c3)n2)cc1NC1CCC(NCCN2CC(F)C2)CC1)C1CC1 (stereo not shown) [Example 55, Cyclopropyl(6-((2-(1-(cyclopropylsulfonyl)-1H-pyrazol-4-yl)pyrimidin-4-yl)amino)-4-((4-((2-(3-fluoroazetidin-1-yl)ethyl)amino)cyclohexyl)amino)pyridin-3-yl)methanone] | 1.9 |  | 1 |  | 85 |  | 35.7 |  | > 10000 | 
10 | O=C(c1cnc(Nc2ccnc(-c3cnn(S(=O)(=O)C4CC4)c3)n2)cc1NC1CCC(NCCN2CCCCC2)CC1)C1CC1 (stereo not shown) [Example 56, Cyclopropyl(6-((2-(1-(cyclopropylsulfonyl)-1H-pyrazol-4-yl)pyrimidin-4-yl)amino)-4-((4-((2-(piperidin-1-yl)ethyl)amino)cyclohexyl)amino)pyridin-3-yl)methanone] | 1.2 |  | 1 |  | 12.2 |  | 7.6 |  | 6300 | 
11 | CN(C)C1CCN(CCNC2CCC(Nc3cc(Nc4ccnc(-c5cnn(S(=O)(=O)C6CC6)c5)n4)ncc3C(=O)C3CC3)CC2)CC1 (stereo not shown) [Example 57, Cyclopropyl(6-((2-(1-(cyclopropylsulfonyl)-1H-pyrazol-4-yl)pyrimidin-4-yl)amino)-4-((4-((2-(4-(dimethylamino)piperidin-1-yl)ethyl)amino)cyclohexyl)amino)pyridin-3-yl)methanone] | 1 |  | 0.6 |  | 10.7 |  | 18 |  | > 10000 | 
12 | CN(C)C[C@H]1CC[C@H](CNc2cc(Nc3ccnc(-c4cnn(S(=O)(=O)C5CC5)c4)n3)ncc2C(=O)C2CC2)CC1 [Example 58, Cyclopropyl(6-((2-(1-(cyclopropylsulfonyl)-1H-pyrazol-4-yl)pyrimidin-4-yl)amino)-4-((((1r,4r)-4-((dimethylamino)methyl)cyclohexyl)methyl)amino)pyridin-3-yl)methanone] |  | 0.1 |  | 0.1 |  | 2.4 |  | 0.4 |  | 3.6
13 | CN(C)C[C@H]1CC[C@H](CNc2cc(Nc3ccnc(-c4cn[nH]c4)n3)ncc2C(=O)C2CC2)CC1 [Example 59, (6-((2-(1H-Pyrazol-4-yl)pyrimidin-4-yl)amino)-4-((((1r,4r)-4-((dimethylamino)methyl)cyclohexyl)methyl)amino)pyridin-3-yl)(cyclopropyl)methanone] |  | 5.7 |  | 1.2 |  | 67.9 |  | 207 |  | 136
14 | CN(C)C[C@H]1CC[C@H](COc2cc(Nc3ccnc(-c4cnn(S(=O)(=O)C5CC5)c4)n3)ncc2C(=O)C2CC2)CC1 [Example 66, Cyclopropyl(6-((2-(1-(cyclopropylsulfonyl)-1H-pyrazol-4-yl)pyrimidin-4-yl)amino)-4-(((1r,4r)-4-((dimethylamino)methyl)cyclohexyl)methoxy)pyridin-3-yl)methanone] |  | 0.4 |  | 0.1 |  | 101 |  | 11.1 |  | 148
15 | NC[C@H]1CC[C@H](CNc2cc(Nc3ccnc(-c4cnn(S(=O)(=O)C5CC5)c4)n3)ncc2C(=O)C2CC2)CC1 [Example 67, (4-((((1r,4r)-4-(Aminomethyl)cyclohexyl)methyl)amino)-6-((2-(1-(cyclopropylsulfonyl)-1H-pyrazol-4-yl)pyrimidin-4-yl)amino)pyridin-3-yl)(cyclopropyl)methanone] |  | 0.2 |  | 0.2 |  | 4.1 |  | 0.7 |  | 9.3
